Legend:
C. albicans = assay: septic murine candidosis model, oral therapy; assay type: in vivo, CFW₁-Mäuse; settings: for Zahl der überlebenden Tiere in den folgenden Tagen nach der Infektion: 2 x 100 mg/kg oral on the day of infection, 10 animals at day 0
Procedure: Wirksamkeit von Nikkomycin X und Z in dem Tiermodell von Murine candidosis.
Gezüchtete CFW₁-Mäuse wurden intravenös mit 6 x 10⁵ cfu von C. albicans infiziert. Die orale Therapie wurde gleichzeitig mit der Infektion gestartet. Die Mittel wurden einzeln mit Nährnadeln in Volumina von 0,5 ml ausgegeben.
In dem Modell der septischen Murine candidosis, das häufig zum Testen von Azolen verwendet wird, wird die Behandlung der Tiere gleichzeitig mit der Infektion gestartet, indem man 2 x 100 mg/kg beider Zubereitungen am Tag der Infektion verabreichte. Diese Verabreichungsweise erzeugt nur eine leichte Verzögerung in der lethalen Kinetik (Tabelle 1).

[1] = system: Candida albicans-Strang B311; assay: checkerboard in vitro synergy test (microtiter plates, growth inhibition endpoints, isobolograms); assay type: cell-based; settings: combination with Nikkomycin versus azole alone
Text: Um die Eignung von Nikkomycinen und Azolen hinsichtlich der synergistischen Wirkung zu testen, wurde ein schachbrettartiger in vitro-Versuch mit der Hefe Candida albicans durchgeführt.
Ein Candida albicans-Strang B311 wurde über Nacht in einer Glucose-Hefeextrakt-Kultur gezüchtet, gewaschen und auf die gewünschte Dichte gebracht.
Die Tests wurden in 96-Loch-Mikrotiterplatten durchgeführt, wobei man eine Hefestickstoffkultur mit Dextrose und Asparagin als Wachstumsmedium verwendete. Die Testmaterialien wurden gelöst, serienmässig verdünnt und dann in die geeigneten Löcher der Mikrotiterplatten überführt, so dass die Endkonzentrationen von 0,02 bis 1 mMol für die Nikkomycine, und 0,06 bis 64 µg für die Azole betrugen. Alle Löcher wurden mit 10.000 Organismen/ml (Endkonzentration) geimpft,und die Platten bei Raumtemperatur 48 Stunden lang inkubiert. Die Platten wurden dann ausgewertet,und die Wachstumsrate für jedes Loch festgestellt. Die Endpunkte wurden für jede Reihe als niedrigste Konzentration, die eine vollständige Inhibierung des Wachstums zeigte, bestimmt. Die Daten wurden als Isobologramme geplottet, die die Endpunkte für die einzelnen Verbindungen als auch die Endpunkte für die verschiedenen Kombinationen zeigten. […]

| Structure (SMILES) | Zahl der überlebenden Tiere in den folgenden Tagen nach der Infektion (C. albicans; day 3 after infection) | Zahl der überlebenden Tiere in den folgenden Tagen nach der Infektion (C. albicans; day 6 after infection) | Reduktion des Endpunktes für die Kombination hinsichtlich des Azolendpunktes [1] | Wirksamkeit (C. albicans; 14-day treatment, daily dose 2 x 10 mg/kg, Fig. 2) | Wirksamkeit (C. albicans; treatment period 3 days, 100 mg/kg, Fig. 1) |
| --- | --- | --- | --- | --- | --- |
| C[C@@H]([C@H](N)C(=O)N[C@H](C(=O)O)[C@H]1O[C@@H](n2cc(C=O)[nH]c2=O)[C@H](O)[C@@H]1O)[C@H](O)c1ccc(O)cn1 [Nikkomycin X] | 10 | 3 |  |  |  |
| Clc1ccccc1C(c1ccccc1)(c1ccccc1)n1ccnc1 [Clotrimazol] |  |  | ≥ 50 -fach |  |  |
| C[C@@H]([C@H](N)C(=O)N[C@H](C(=O)O)[C@H]1O[C@@H](n2ccc(=O)[nH]c2=O)[C@H](O)[C@@H]1O)[C@H](O)c1ccc(O)cn1 [Nikkomycin Z] | 6 | 5 |  | wirksamer als 2 x 100 mg/kg | vergleichbar zu der von 25 mg/kg Ketoconazol oder Vibunazol |
